In PubChem BioAssay (NCI):
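Growth conditions: 96-well plates. Treatment: test compound, 48 hours, 5 concentrations. Analysis: linear interpolation between bracketing concentrations; unreached endpoints set to highest concentration. The concentration for 50% growth inhibition is given as GI50. The concentration for full growth arrest is given as TGI.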

Experiments:
Assay in all cases: NCI tumour cell line growth inhibition, 48 h
NCI-H226 lung = system: NCI-H226 lung
A498 renal = system: A498 renal
NCI/ADR-RES ovarian = system: NCI/ADR-RES ovarian
UACC-257 melanoma = system: UACC-257 melanoma
MDA-MB-435 = system: MDA-MB-435
KM12 colon = system: KM12 colon
UACC-62 melanoma = system: UACC-62 melanoma
SNB-75 CNS = system: SNB-75 CNS
MDA-N = system: MDA-N
NCI-H522 lung = system: NCI-H522 lung

| SMILES | TGI (NCI-H226 lung) | TGI (A498 renal) | TGI (NCI/ADR-RES ovarian) | TGI (UACC-257 melanoma) | TGI (MDA-MB-435) | TGI (KM12 colon) | TGI (UACC-62 melanoma) | TGI (SNB-75 CNS) | TGI (MDA-N) | TGI (NCI-H522 lung) | GI50 (NCI-H226 lung) | GI50 (A498 renal) | GI50 (NCI/ADR-RES ovarian) | GI50 (UACC-257 melanoma) | GI50 (KM12 colon) | GI50 (SNB-75 CNS) | GI50 (UACC-62 melanoma) | GI50 (NCI-H522 lung) | GI50 (MDA-MB-435) |
| --- | --- | --- | --- | --- | --- | --- | --- | --- | --- | --- | --- | --- | --- | --- | --- | --- | --- | --- | --- |
| O=C(Nc1ccc(Cl)cc1)c1cc(S(=O)(=O)Nc2n[nH]c(=O)n2-c2ccccc2)c(S)cc1Cl | > 100 µM | > 100 µM | > 100 µM | > 100 µM | > 100 µM | > 100 µM | > 100 µM |  |  |  |  |  |  |  |  |  |  |  |  |
| c1cc2c(cc1C1=NCCN1)c1cc(C3=NCCN3)ccc1n2CC1CCCCC1 | 48.7 µM | > 100 µM | > 100 µM | 59.3 µM | 50.3 µM | > 100 µM |  | 30.6 µM | > 100 µM | 21.6 µM |  |  |  |  |  |  |  |  |  |
| CC(=O)OCC1OC(n2c(-c3ccccc3)c(N=Nc3ccc(C)cc3)c(C)c(C#N)c2=S)C(OC(C)=O)C(OC(C)=O)C1OC(C)=O (centres undefined) |  | 18.4 µM | 39.9 µM | > 100 µM | 36.6 µM | > 100 µM |  |  | 74.9 µM |  |  |  |  |  |  |  |  |  |  |
| Cc1ccc(/C=C2\N=C(N3CCCC(CO)C3)NC2=O)cc1 (centres undefined) | > 100 µM |  | > 100 µM | > 100 µM | > 100 µM | > 100 µM | > 100 µM | > 100 µM | > 100 µM | > 100 µM |  |  |  |  |  |  |  |  |  |
| COc1ccc2c(c1)CCC/C2=N\NS(=O)(=O)c1c(C)cc(C)cc1C | 59.8 µM | 77 µM | 59.9 µM | > 100 µM | > 100 µM | 32.9 µM | 42.6 µM | 58.9 µM | > 100 µM |  |  |  |  |  |  |  |  |  |  |
| CC(NC(=O)C(Cc1ccc(OC(=O)c2ccccc2)cc1)NC(=O)OC(C)(C)C)C(=O)NCC(=O)NC(Cc1ccccc1)C(=O)NN (centres undefined) | > 100 µM | > 100 µM | > 100 µM |  | > 100 µM | > 100 µM | > 100 µM | > 100 µM | > 100 µM | > 100 µM |  |  |  |  |  |  |  |  |  |
| O=C1CC(c2ccccc2)S(=O)c2ccccc2N1 (centres undefined) | > 100 µM |  | > 100 µM | > 100 µM | > 100 µM | > 100 µM | > 100 µM | > 100 µM |  | > 100 µM |  |  |  |  |  |  |  |  |  |
| O=S(=O)(O)c1ccc2c(N=Nc3ccc(Sc4ccc(N=Nc5c(O)ccc6cc(S(=O)(=O)O)ccc56)cc4)cc3)c(O)ccc2c1 | > 100 µM |  | > 100 µM | > 100 µM | > 100 µM | > 100 µM | > 100 µM |  | > 100 µM | > 100 µM |  |  |  |  |  |  |  |  |  |
| COc1ccc(-c2n/c(=C\c3c(O)[nH]c4ccccc34)cc3c2=Nc2ccccc2-3)cc1 | 36.2 µM | 13.2 µM | 3.04 µM | 6.97 µM |  | 2.18 µM | 2.58 µM | 21.1 µM |  | 2.3 µM | 15.1 µM | 2.42 µM | 0.667 µM | 2.19 µM | 0.695 µM | 2.07 µM | 1.31 µM | 1.06 µM |  |
| O=C(O)c1ccc(N/C(=C(/C(Cl)=C(Cl)Cl)[N+](=O)[O-])n2nnc3ccccc32)cc1 | > 100 µM | > 100 µM | > 100 µM | > 100 µM | > 100 µM | > 100 µM | > 100 µM |  | > 100 µM |  |  |  |  |  |  |  |  |  |  |
| CC1(C)CC(=O)C2=C(C1)OC1(CC2c2ccc(Cl)cc2)CC(c2ccc(Cl)cc2)C2=C(CC(C)(C)CC2=O)O1 (centres undefined) | 42.1 µM | 31 µM | > 73.3 µM | > 61.7 µM | 33.7 µM | 40.6 µM | > 53.5 µM | 37.1 µM |  | 27.6 µM |  |  |  |  |  |  |  |  |  |
| CCOC(=O)C(C(=O)COC(C)(C)C)[C@@H]1C=C[C@H](OC(C)=O)C1 (some centres undefined) | > 100 µM | > 100 µM | > 100 µM | > 100 µM | > 100 µM | > 100 µM | > 100 µM | > 100 µM | > 100 µM |  |  |  |  |  |  |  |  |  |  |
| CC(C)c1ccc(/C=C2\CSCC3=C2N=C2SCC(=O)N2C3c2ccc(C(C)C)cc2)cc1 (centres undefined) | > 100 µM |  | > 100 µM | > 100 µM | > 100 µM | > 100 µM | > 100 µM | > 100 µM | > 100 µM |  |  |  |  |  |  |  |  |  |  |
| COCCN1C(=O)C2c3[nH]c4ccccc4c3C3CCC(C(C)(C)C)CC3C2C1=O (centres undefined) | 39 µM |  | 42.6 µM | 31.8 µM | 36.9 µM | 38.9 µM | > 10 µM | 35.6 µM | 30.1 µM | 35.7 µM |  |  |  |  |  |  |  |  |  |
| COc1ccc(-n2cnc3c(NC(Cc4ccccc4)C(=O)O)ncnc32)cc1 (centres undefined) | > 100 µM | > 100 µM | > 100 µM | > 100 µM | > 100 µM | > 100 µM | > 100 µM | > 100 µM | > 100 µM |  |  |  |  |  |  |  |  |  |  |
| Cc1ccc(/C=C2/N=C(N/N=C\c3ccccc3)NC2=O)cc1 | > 100 µM |  | > 100 µM | > 100 µM | 69.7 µM | > 100 µM |  | > 100 µM | 88.2 µM | > 100 µM |  |  |  |  |  |  |  |  |  |
| CCOC(=O)C(C/C=C/CO)N(C)C(=O)OC(C)(C)C (centres undefined) | > 100 µM | > 100 µM | > 100 µM | > 100 µM |  | > 100 µM | > 100 µM | > 100 µM | > 100 µM | 61.4 µM |  |  |  |  |  |  |  |  |  |
| Cc1cc2ccc(N)nc2[nH]c1=O | > 100 µM |  | > 100 µM | > 100 µM | > 100 µM | > 100 µM | > 100 µM | > 100 µM | > 100 µM | > 100 µM |  |  |  |  |  |  |  |  |  |
| C=C(C)[C@@H]1CC[C@]2(CO)CC[C@]3(C)[C@H](CC[C@@H]4[C@@]5(C)CC[C@H](NCO)C(C)(C)[C@@H]5CC[C@]43C)[C@@H]12 | 20.5 µM | 1.69 µM | 1.72 µM | 1.91 µM | 1.78 µM | 1.63 µM | 1.63 µM | 1.4 µM |  | 2.01 µM | 8.3 µM | 0.802 µM | 0.894 µM | 0.935 µM | 0.886 µM | 0.71 µM | 0.918 µM | 1.03 µM | 0.896 µM |
| COC(=O)c1cc(/C=C\c2cc(OC)ccc2OC)ccc1OC |  | > 100 µM | > 100 µM | 96.5 µM | 61.4 µM | > 100 µM | 90.8 µM |  | > 100 µM | 45.6 µM |  |  |  |  |  |  |  |  |  |
| CCOC(=O)c1cc(Br)c(-c2cc(C)co2)[nH]1 | > 100 µM | > 100 µM | > 100 µM | > 100 µM | > 100 µM | > 100 µM | > 100 µM | > 100 µM | > 100 µM |  |  |  |  |  |  |  |  |  |  |
